Data reported in patent publication US8076487B2, “Pyridone derivative and herbicide” (Kumiai Chemical Industry Co., Ltd., priority 2006, dated 2011).

How the values were obtained:
Assay type in all cases: in vivo
[1] = test system: heartshape false pickerelweed (Monochoria vaginalis (Burm.f.) C.Presl); experiment: Test Example 1: herbicidal effect by soil application to paddy field; settings: for herbicidal effect, Monochoria vaginalis (Burm. f.) C. Presl: paddy field soil application, active ingredient 1,000 g per 1 hectare, wettable powder added dropwise to water surface the day after sowing, examined on the 21st day after application
Method in brief: (§1)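 Plants were sown in flooded (3 cm) paddy soil and evaluated for herbicidal effect 21 days after soil application in a greenhouse.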

[2] = test system: early watergrass (Echinochloa oryzicola Vasing); experiment: as above; settings: for herbicidal effect, Echinochloa oryzicola Vasing: paddy field soil application, active ingredient 1,000 g per 1 hectare, wettable powder added dropwise to water surface the day after sowing, examined on the 21st day after application
Method in brief: as §1

[3] = test system: Japanese bulrush (Scirpus juncoides Roxb.); experiment: as above; settings: for herbicidal effect, Scirpus juncoides Roxb.: paddy field soil application, active ingredient 1,000 g per 1 hectare, wettable powder added dropwise to water surface the day after sowing, examined on the 21st day after application
Method in brief: as §1

[4] = test system: barnyardgrass (Echinochloa crus-galli (L.) P. Beauv. var. crus-galli); experiment: Test Example 2: herbicidal effect by soil application to upland field; settings: soil surface spray, upland field soil, 1,000 g active ingredient per hectare, 21st day after application
Method: (§2) [table] Test Example 2 Test on Herbicidal Effect by Soil Application to Upland field In a 80 cm2 plastic pot, field soil was filled. Seeds of barnyardgrass (Echinochloa crus-galli (L.) P. Beauv. var. crus-galli), green foxtail (Setaria viridis (L.) P. Beauv.), velvetleaf (Abutilon theophrasti medicus), and slender amaranth (Amaranthus viridis L.) were sown and covered with soils. The wettable powder prepared according to Formulation Example 1 was diluted in water and a 1,000 liter equivalent amount per 1 hectare so that the active ingredient becomes 1,000 g per 1 hectare was uniformly sprayed on a soil surface using a small sprayer. Then, on the 21st day after the application to the plants grew in a greenhouse, the herbicidal effect was examined in accordance with a standard shown in Table 34.

[5] = test system: green foxtail (Setaria viridis (L.) P. Beauv.); experiment: as above; settings: soil surface spray, upland field soil, 1,000 g active ingredient per hectare, 21st day after application
Method: as §2

[6] = test system: velvetleaf (Abutilon theophrasti medicus); experiment: as above; settings: soil surface spray, upland field soil, 1,000 g active ingredient per hectare, 21st day after application
Method: as §2

[7] = test system: slender amaranth (Amaranthus viridis L.); experiment: as above; settings: soil surface spray, upland field soil, 1,000 g active ingredient per hectare, 21st day after application
Method: as §2

[8] = test system: barnyardgrass (Echinochloa crus-galli (L.) P. Beauv. var. crus-galli); experiment: Test Example 3: herbicidal effect by application to upland field (foliage treatment); settings: 14th day after application; for herbicidal effect (index), Barnyardgrass: foliage treatment, plants grown two weeks, 1,000 g active ingredient per hectare; for herbicidal effect, Barnyardgrass: foliage treatment, 1,000 g active ingredient per 1 hectare, greenhouse
Method in brief: (§3)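 Field-soil pots sown with the four weed species and grown two weeks in a greenhouse, then sprayed over the whole plant with wettable powder in water at 1,000 g active ingredient/ha in 1,000 L/ha. Herbicidal effect scored against a rating standard 14 days after treatment.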

[9] = test system: green foxtail (Setaria viridis (L.) P. Beauv.); experiment: as above; settings: 14th day after application; for herbicidal effect (index), Green Foxtail: foliage treatment, plants grown two weeks, 1,000 g active ingredient per hectare; for herbicidal effect, Green Foxtail: foliage treatment, 1,000 g active ingredient per 1 hectare, greenhouse
Method in brief: as §3

[10] = test system: velvetleaf (Abutilon theophrasti medicus); experiment: as above; settings: 14th day after application; for herbicidal effect (index), Velvetleaf: foliage treatment, plants grown two weeks, 1,000 g active ingredient per hectare; for herbicidal effect, Velvetleaf: foliage treatment, 1,000 g active ingredient per 1 hectare, greenhouse
Method in brief: as §3

[11] = test system: slender amaranth (Amaranthus viridis L.); experiment: as above; settings: 14th day after application; for herbicidal effect (index), Slender Amaranth: foliage treatment, plants grown two weeks, 1,000 g active ingredient per hectare; for herbicidal effect, Slender Amaranth: foliage treatment, 1,000 g active ingredient per 1 hectare, greenhouse
Method in brief: as §3

[12] = soil application to paddy field, rated by standard of Table 34

## CN(c1ccccc1)n1c(C(F)(F)F)ccc(C(=O)C2=C(O)CCCC2=O)c1=O [I-182]
[1]
  herbicidal effect, Monochoria vaginalis (Burm. f.) C. Presl: 5 (90% or more of herbicidal effect and crop phytotoxicity)
[2]
  herbicidal effect, Echinochloa oryzicola Vasing: 5 (90% or more of herbicidal effect and crop phytotoxicity)
[3]
  herbicidal effect, Scirpus juncoides Roxb.: 5 (90% or more of herbicidal effect and crop phytotoxicity)
[4]
  herbicidal effect (index), Barnyardgrass: 5 (90% or more of herbicidal effect and crop phytotoxicity)
[5]
  herbicidal effect (index), Green Foxtail: 4 (70 to less than 90% of herbicidal effect and crop phytotoxicity)
[6]
  herbicidal effect (index), Velvetleaf: 5 (90% or more of herbicidal effect and crop phytotoxicity)
[7]
  herbicidal effect (index), Slender Amaranth: 5 (90% or more of herbicidal effect and crop phytotoxicity)

## Cn1ncc(C(=O)c2ccc(C(F)(F)F)n(CC3CCCO3)c2=O)c1OC(=O)c1ccccc1 (stereo not drawn) [IV-131]
[1]
  herbicidal effect, Monochoria vaginalis (Burm. f.) C. Presl: 5 (90% or more of herbicidal effect and crop phytotoxicity)
[2]
  herbicidal effect, Echinochloa oryzicola Vasing: 5 (90% or more of herbicidal effect and crop phytotoxicity)
[3]
  herbicidal effect, Scirpus juncoides Roxb.: 5 (90% or more of herbicidal effect and crop phytotoxicity)
[4]
  herbicidal effect (index), Barnyardgrass: 4 (70 to less than 90% of herbicidal effect and crop phytotoxicity)
[5]
  herbicidal effect (index), Green Foxtail: 3 (50 to less than 70% of herbicidal effect and crop phytotoxicity)
[6]
  herbicidal effect (index), Velvetleaf: 4 (70 to less than 90% of herbicidal effect and crop phytotoxicity)
[7]
  herbicidal effect (index), Slender Amaranth: 5 (90% or more of herbicidal effect and crop phytotoxicity)

## N#CC(C(=O)c1ccc(C(F)(F)F)n(-c2ccccc2)c1=O)=C(O)C1CC1 [V-23]
[1]; [12]
  herbicidal effect (index), Monochoria vaginalis (Burm.f.) C.Presl: 5 (90% or more of herbicidal effect and crop phytotoxicity)
[2]; [12]
  herbicidal effect (index), Echinochloa oryzicola Vasing: 5 (90% or more of herbicidal effect and crop phytotoxicity)
[3]; [12]
  herbicidal effect (index), Scirpus juncoides Roxb.: 5 (90% or more of herbicidal effect and crop phytotoxicity)
[4]
  herbicidal effect (index), Barnyardgrass: 5 (90% or more of herbicidal effect and crop phytotoxicity)
[5]
  herbicidal effect (index), Green Foxtail: 5 (90% or more of herbicidal effect and crop phytotoxicity)
[6]
  herbicidal effect (index), Velvetleaf: 5 (90% or more of herbicidal effect and crop phytotoxicity)
[7]
  herbicidal effect (index), Slender Amaranth: 5 (90% or more of herbicidal effect and crop phytotoxicity)

## COn1c(C(F)(F)F)ccc(C(=O)C2=C(O)CCCC2=O)c1=O [I-202]
[1]
  herbicidal effect, Monochoria vaginalis (Burm. f.) C. Presl: 5 (90% or more of herbicidal effect and crop phytotoxicity)
[2]
  herbicidal effect, Echinochloa oryzicola Vasing: 5 (90% or more of herbicidal effect and crop phytotoxicity)
[3]
  herbicidal effect, Scirpus juncoides Roxb.: 5 (90% or more of herbicidal effect and crop phytotoxicity)
[4]
  herbicidal effect (index), Barnyardgrass: 5 (90% or more of herbicidal effect and crop phytotoxicity)
[5]
  herbicidal effect (index), Green Foxtail: 5 (90% or more of herbicidal effect and crop phytotoxicity)
[6]
  herbicidal effect (index), Velvetleaf: 5 (90% or more of herbicidal effect and crop phytotoxicity)
[7]
  herbicidal effect (index), Slender Amaranth: 5 (90% or more of herbicidal effect and crop phytotoxicity)

## Cn1c(C(F)(F)F)ccc(C(=O)C2=C(Sc3ccc(Cl)cc3Cl)CCCC2=O)c1=O [II-14]
[1]
  herbicidal effect, Monochoria vaginalis (Burm. f.) C. Presl: 5 (90% or more of herbicidal effect and crop phytotoxicity)
[2]
  herbicidal effect, Echinochloa oryzicola Vasing: 5 (90% or more of herbicidal effect and crop phytotoxicity)
[3]
  herbicidal effect, Scirpus juncoides Roxb.: 5 (90% or more of herbicidal effect and crop phytotoxicity)
[4]
  herbicidal effect (index), Barnyardgrass: 4 (70 to less than 90% of herbicidal effect and crop phytotoxicity)
[5]
  herbicidal effect (index), Green Foxtail: 3 (50 to less than 70% of herbicidal effect and crop phytotoxicity)
[6]
  herbicidal effect (index), Velvetleaf: 5 (90% or more of herbicidal effect and crop phytotoxicity)
[7]
  herbicidal effect (index), Slender Amaranth: 5 (90% or more of herbicidal effect and crop phytotoxicity)

## CCCS(=O)(=O)Oc1c(C(=O)c2ccc(C(F)(F)F)n(CCC=C(Cl)Cl)c2=O)cnn1C [IV-31]
[4]
  herbicidal effect (index), Barnyardgrass: 4 (70 to less than 90% of herbicidal effect and crop phytotoxicity)
[5]
  herbicidal effect (index), Green Foxtail: 3 (50 to less than 70% of herbicidal effect and crop phytotoxicity)
[6]
  herbicidal effect (index), Velvetleaf: 4 (70 to less than 90% of herbicidal effect and crop phytotoxicity)
[7]
  herbicidal effect (index), Slender Amaranth: 5 (90% or more of herbicidal effect and crop phytotoxicity)

## N#CC(C(=O)c1ccc(C(F)(F)F)n(CC(F)(F)F)c1=O)=C(O)C1CC1 [V-22]
[4]
  herbicidal effect (index), Barnyardgrass: 4 (70 to less than 90% of herbicidal effect and crop phytotoxicity)
[5]
  herbicidal effect (index), Green Foxtail: 4 (70 to less than 90% of herbicidal effect and crop phytotoxicity)
[6]
  herbicidal effect (index), Velvetleaf: 5 (90% or more of herbicidal effect and crop phytotoxicity)
[7]
  herbicidal effect (index), Slender Amaranth: 5 (90% or more of herbicidal effect and crop phytotoxicity)

## C=C(C)Cn1c(C(F)(F)F)ccc(C(=O)C2=C(O)CCCC2=O)c1=O [I-12]
[1]
  herbicidal effect, Monochoria vaginalis (Burm. f.) C. Presl: 5 (90% or more of herbicidal effect and crop phytotoxicity)
[2]
  herbicidal effect, Echinochloa oryzicola Vasing: 5 (90% or more of herbicidal effect and crop phytotoxicity)
[3]
  herbicidal effect, Scirpus juncoides Roxb.: 5 (90% or more of herbicidal effect and crop phytotoxicity)
[8]
  herbicidal effect (index), Barnyardgrass: 5 (90% or more of herbicidal effect and crop phytotoxicity)
[9]
  herbicidal effect (index), Green Foxtail: 5 (90% or more of herbicidal effect and crop phytotoxicity)
[10]
  herbicidal effect (index), Velvetleaf: 5 (90% or more of herbicidal effect and crop phytotoxicity)
[11]
  herbicidal effect (index), Slender Amaranth: 5 (90% or more of herbicidal effect and crop phytotoxicity)

## CCC(C)Nn1c(C(F)(F)F)ccc(C(=O)C2=C(O)CCCC2=O)c1=O (stereo not drawn) [I-163]
[1]
  herbicidal effect, Monochoria vaginalis (Burm. f.) C. Presl: 5 (90% or more of herbicidal effect and crop phytotoxicity)
[2]
  herbicidal effect, Echinochloa oryzicola Vasing: 5 (90% or more of herbicidal effect and crop phytotoxicity)
[3]
  herbicidal effect, Scirpus juncoides Roxb.: 5 (90% or more of herbicidal effect and crop phytotoxicity)
[8]
  herbicidal effect, Barnyardgrass: 5 (90% or more of herbicidal effect and crop phytotoxicity)
[9]
  herbicidal effect, Green Foxtail: 5 (90% or more of herbicidal effect and crop phytotoxicity)
[10]
  herbicidal effect, Velvetleaf: 5 (90% or more of herbicidal effect and crop phytotoxicity)
[11]
  herbicidal effect, Slender Amaranth: 5 (90% or more of herbicidal effect and crop phytotoxicity)

## CC(C)Nn1c(C(F)(F)F)ccc(C(=O)C2=C(O)CCCC2=O)c1=O [I-160]
[1]
  herbicidal effect, Monochoria vaginalis (Burm. f.) C. Presl: 5 (90% or more of herbicidal effect and crop phytotoxicity)
[2]
  herbicidal effect, Echinochloa oryzicola Vasing: 5 (90% or more of herbicidal effect and crop phytotoxicity)
[3]
  herbicidal effect, Scirpus juncoides Roxb.: 5 (90% or more of herbicidal effect and crop phytotoxicity)
[8]
  herbicidal effect, Barnyardgrass: 4 (70 to less than 90% of herbicidal effect and crop phytotoxicity)
[9]
  herbicidal effect, Green Foxtail: 3 (50 to less than 70% of herbicidal effect and crop phytotoxicity)
[10]
  herbicidal effect, Velvetleaf: 5 (90% or more of herbicidal effect and crop phytotoxicity)
[11]
  herbicidal effect, Slender Amaranth: 5 (90% or more of herbicidal effect and crop phytotoxicity)

## O=C1CCCC(O)=C1C(=O)c1ccc(C(F)(F)F)n(-c2c(F)cccc2F)c1=O [I-104]
[1]
  herbicidal effect, Monochoria vaginalis (Burm. f.) C. Presl: 5 (90% or more of herbicidal effect and crop phytotoxicity)
[2]
  herbicidal effect, Echinochloa oryzicola Vasing: 5 (90% or more of herbicidal effect and crop phytotoxicity)
[3]
  herbicidal effect, Scirpus juncoides Roxb.: 5 (90% or more of herbicidal effect and crop phytotoxicity)
[8]
  herbicidal effect (index), Barnyardgrass: 5 (90% or more of herbicidal effect and crop phytotoxicity)
[9]
  herbicidal effect (index), Green Foxtail: 4 (70 to less than 90% of herbicidal effect and crop phytotoxicity)
[10]
  herbicidal effect (index), Velvetleaf: 5 (90% or more of herbicidal effect and crop phytotoxicity)
[11]
  herbicidal effect (index), Slender Amaranth: 5 (90% or more of herbicidal effect and crop phytotoxicity)

## Cc1ccc(C(=O)COc2c(C(=O)c3ccc(C(F)(F)F)n(CC4CCCO4)c3=O)cnn2C)cc1 (stereo not drawn) [IV-139]
[1]
  herbicidal effect, Monochoria vaginalis (Burm. f.) C. Presl: 5 (90% or more of herbicidal effect and crop phytotoxicity)
[2]
  herbicidal effect, Echinochloa oryzicola Vasing: 5 (90% or more of herbicidal effect and crop phytotoxicity)
[3]
  herbicidal effect, Scirpus juncoides Roxb.: 5 (90% or more of herbicidal effect and crop phytotoxicity)
[8]
  herbicidal effect, Barnyardgrass: 5 (90% or more of herbicidal effect and crop phytotoxicity)
[9]
  herbicidal effect, Green Foxtail: 4 (70 to less than 90% of herbicidal effect and crop phytotoxicity)
[10]
  herbicidal effect, Velvetleaf: 5 (90% or more of herbicidal effect and crop phytotoxicity)
[11]
  herbicidal effect, Slender Amaranth: 5 (90% or more of herbicidal effect and crop phytotoxicity)
